One block for each compound: values may come before it.
Key:
[1] = Stability study: loss of purity over time by liquid chromatography; format: physicochemical
Experimental: Formula I amorphous material and Forms I, II, III and IV were examined for loss of purity over time as determined by liquid chromatography.
The sample preparations for the stability study are described as follows: • Formula I Amorphous: A sample of amorphous solids was placed at about 22° C. open to air and the purity was monitored over 3 days by liquid chromatography. • Formula I Form I: Samples of Formula I Form I were placed in sealed glass vials and placed in a chamber at about 40° C. and about 75% RH and the purity was periodically monitored by liquid chromatography. • Formula I Form II: Samples of Formula I Form II were placed in an open vial. The vial was placed inside a container alongside a saturated salt solution to provide a humidity of about 88% RH and sealed. The sealed container was then placed into a chamber at about 40° C. and the purity was periodically monitored by liquid chromatography. • Formula I Form III: Samples of Formula I Form […] and sealed. The sealed container was then placed into a chamber at about 40° C. and the purity was periodically monitored by liquid chromatography. • Formula I Form IV: Samples of Formula I Form IV were packaged at about 0% RH inside a PE bag and heat-sealed inside a foil pouch. The pouches were then placed in a chamber at about 40° C. and the purity was periodically monitored by liquid chromatography.

[2] = Dynamic vapor sorption (DVS) hygroscopicity; format: physicochemical; conditions: 25° C.
Experimental: Hygroscopicity was studied using dynamic vapor sorption (DVS, TA Q5000 SA, TA Instruments, New Castle, DE or DVS, DVS Intrinsic, Surface Measurement Systems, London, UK). A sample (2-20 mg) was placed in an aluminum DVS pan and loaded on the sample side of the twin pan balance. The water sorption and desorption were studied as a function of relative humidity (RH) at 25° C. In 10% RH increments, the relative humidity was increased from 5% RH to 95% RH and then decreased back to 5% (some cases from 0 to 90% RH and then decrease back to 0%). […] Data analysis was performed using Universal Analysis 2000 Version 4.7A (TA Instruments, New Castle, DE) for TA DVS runs and Microsoft Excel for SMS DVS runs.

- Formula I Purity Over Time (% purity) ([1]; About 40° C., about 75% RH, 0 days): 99.13 % purity
- Formula I Purity Over Time (% purity) ([1]; About 40° C., about 75% RH, 7 days): 98.37 % purity
- Formula I Purity Over Time (% purity) ([1]; About 40° C., about 75% RH, 14 days): 97.97 % purity
- Formula I Purity Over Time (% purity) ([1]; About 40° C., about 75% RH, 28 days): 96.57 % purity
- DVS weight change ([2]; RH 5-95%): about 9.5 weight percent
Structure (SMILES): Cn1ccc2c([C@@H](c3cn(C45CC(C4)C5)nn3)N(C(=O)OCOP(=O)(O)O)c3cc(Cl)c4ncc(C#N)c(NCC(C)(C)C)c4c3)cccc2c1=O [Formula I Form I]

- Formula I Purity Over Time (% purity) ([1]; About 40° C., about 0% RH, 0 days): 99.49 % purity
- Formula I Purity Over Time (% purity) ([1]; About 40° C., about 0% RH, 14 days): 99.44 % purity
- Formula I Purity Over Time (% purity) ([1]; About 40° C., about 0% RH, 28 days): 99.43 % purity
Structure (SMILES): Cn1ccc2c([C@@H](c3cn(C45CC(C4)C5)nn3)N(C(=O)OCOP(=O)(O)O)c3cc(Cl)c4ncc(C#N)c(NCC(C)(C)C)c4c3)cccc2c1=O [Formula I Form IV]

- Formula I Purity Over Time (% purity) ([1]; About 22° C., open to atmosphere, 0 days): 95.74 % purity
- Formula I Purity Over Time (% purity) ([1]; About 22° C., open to atmosphere, 1 day): 95.45 % purity
- Formula I Purity Over Time (% purity) ([1]; About 22° C., open to atmosphere, 2 days): 95.18 % purity
- Formula I Purity Over Time (% purity) ([1]; About 22° C., open to atmosphere, 3 days): 95.05 % purity
Structure (SMILES): Cn1ccc2c([C@@H](c3cn(C45CC(C4)C5)nn3)N(C(=O)OCOP(=O)(O)O)c3cc(Cl)c4ncc(C#N)c(NCC(C)(C)C)c4c3)cccc2c1=O [Formula I Amorphous]

- Formula I Purity Over Time (% purity) ([1]; About 40° C., about 88% RH, 0 days): 98.78 % purity
- Formula I Purity Over Time (% purity) ([1]; About 40° C., about 88% RH, 1 day): 98.67 % purity
- Formula I Purity Over Time (% purity) ([1]; About 40° C., about 88% RH, 7 days): 98.64 % purity
- Formula I Purity Over Time (% purity) ([1]; About 40° C., about 88% RH, 14 days): 98.59 % purity
- loss of purity over time ([1]; compared to Formula I Form I or Formula I amorphous material): decreased loss of purity over time
Structure (SMILES): Cn1ccc2c([C@@H](c3cn(C45CC(C4)C5)nn3)N(C(=O)OCOP(=O)(O)O)c3cc(Cl)c4ncc(C#N)c(NCC(C)(C)C)c4c3)cccc2c1=O [Formula I Form II]

- DVS weight change ([2]; 0-90% RH): about 7.5%
- DVS weight change ([2]; 50-90% RH): about 2%
Structure (SMILES): Cn1ccc2c([C@@H](c3cn(C45CC(C4)C5)nn3)N(C(=O)OCOP(=O)(O)O)c3cc(Cl)c4ncc(C#N)c(NCC(C)(C)C)c4c3)cccc2c1=O [Formula I Glycolate]

- DVS weight change ([2]; 10-90% RH): about 4.3%
- DVS weight change ([2]; 50-90% RH): about 2.5%
Structure (SMILES): Cn1ccc2c([C@@H](c3cn(C45CC(C4)C5)nn3)N(C(=O)OCOP(=O)(O)O)c3cc(Cl)c4ncc(C#N)c(NCC(C)(C)C)c4c3)cccc2c1=O [Formula I Pyruvate Form B]

- DVS weight change ([2]; 0-90% RH): about 5.5%
- DVS weight change ([2]; 50-90% RH): about 2%
Structure (SMILES): Cn1ccc2c([C@@H](c3cn(C45CC(C4)C5)nn3)N(C(=O)OCOP(=O)(O)O)c3cc(Cl)c4ncc(C#N)c(NCC(C)(C)C)c4c3)cccc2c1=O [Formula I α-Ketobutyrate Form B]

- Formula I Purity Over Time (% purity) ([1]; About 40° C., about 27% RH, 0 days): 98.61 % purity
- Formula I Purity Over Time (% purity) ([1]; About 40° C., about 27% RH, 1 day): 98.58 % purity
- Formula I Purity Over Time (% purity) ([1]; About 40° C., about 27% RH, 7 days): 98.55 % purity
- Formula I Purity Over Time (% purity) ([1]; About 40° C., about 27% RH, 14 days): 98.50 % purity
Structure (SMILES): Cn1ccc2c([C@@H](c3cn(C45CC(C4)C5)nn3)N(C(=O)OCOP(=O)(O)O)c3cc(Cl)c4ncc(C#N)c(NCC(C)(C)C)c4c3)cccc2c1=O [Formula I Form III]
